This passage reports IC50 results from patent US11142515B2, “Pyrazolyl-ureas as kinase inhibitors” (RESPIVERT LIMITED, priority 2014, dated 2021).

Assay [1] addresses T1, p38 MAPKα isoform (MAPK14) (Homo sapiens, UniProt Q16539).
T1 construct: purchased Life Technologies
Briefly: p38 MAPKα enzyme inhibition (Z-LYTE FRET). Type of assay: biochemical. The note with it: Table 2B, unit inferred; read-out: p38 MAPKα (Enzyme Profile). A digest of the protocol: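 Activity was measured indirectly as phosphorylation of a MAPKAP-K2-derived FRET peptide. Enzyme (added at 40 ng/mL) was preincubated 2 h at RT with compound (added solutions 40–0.0012 μg/mL).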

For assay [2], the target named is T2, p38MAPKγ (MAPK12) (Homo sapiens, UniProt P53778).
T2 construct: purchased Life Technologies
T2 sequence (P53778 1-367): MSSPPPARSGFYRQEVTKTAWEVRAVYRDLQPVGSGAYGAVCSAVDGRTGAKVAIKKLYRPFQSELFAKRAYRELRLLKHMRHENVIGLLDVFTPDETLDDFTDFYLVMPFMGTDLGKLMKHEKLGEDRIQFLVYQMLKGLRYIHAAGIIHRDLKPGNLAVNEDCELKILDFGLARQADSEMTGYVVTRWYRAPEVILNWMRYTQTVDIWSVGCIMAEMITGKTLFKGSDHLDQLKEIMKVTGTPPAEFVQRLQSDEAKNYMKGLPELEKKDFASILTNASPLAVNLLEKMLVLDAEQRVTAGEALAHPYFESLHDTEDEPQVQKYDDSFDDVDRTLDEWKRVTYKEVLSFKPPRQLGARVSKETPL
Put plainly: p38 MAPKγ enzyme inhibition (Z-LYTE FRET). Type of assay: biochemical. The note with it: Table 2B, unit inferred; read-out: p38 MAPKγ (Enzyme Profile). A digest of the protocol: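 Enzyme (added at 800 ng/mL) was preincubated 2 h at RT with compound (solutions of 40 to 0.0012 μg/mL), then FRET peptide (8 μM) and ATP (400 μM), both as added, were reacted 1 h at RT. Protease development followed for 1 h; phosphorylation was read as the coumarin/fluorescein emission ratio.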

T1 sequence (Q16539 whole entry, canonical isoform): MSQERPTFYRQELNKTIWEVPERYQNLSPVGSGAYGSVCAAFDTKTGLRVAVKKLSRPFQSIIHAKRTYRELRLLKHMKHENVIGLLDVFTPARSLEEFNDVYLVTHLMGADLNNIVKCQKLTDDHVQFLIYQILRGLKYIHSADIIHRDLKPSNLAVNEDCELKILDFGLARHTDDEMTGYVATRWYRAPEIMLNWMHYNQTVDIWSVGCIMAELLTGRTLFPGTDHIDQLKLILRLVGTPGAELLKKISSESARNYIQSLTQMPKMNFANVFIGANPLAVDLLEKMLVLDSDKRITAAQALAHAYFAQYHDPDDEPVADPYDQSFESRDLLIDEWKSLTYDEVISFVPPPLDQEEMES

Take `CC(C)(C)c1cc(NC(=O)Nc2ccc(OCc3ccnc(Nc4cnc(C(=O)N5CCCC5)cn4)c3)c3ccccc23)n(-c2ccc(F)cc2)n1` [Example 215, 1-(3-(tert-butyl)-1-(4-fluoro-phenyl)-1H-pyrazol-5-yl)-3-(4-((2-((5-(pyrrolidine-1-carbonyl)pyrazin-2-yl)amino)pyridin-4-yl)methoxy)naphthalen-1-yl)urea]: the IC50 is 15 nM in assay [1] and over 14300 nM in assay [2].
For `Cc1ccc(-n2nc(C(C)(C)C)cc2NC(=O)Nc2ccc(OCc3ccnc(Nc4cnc(C(=O)NCCC5CCN(C)CC5)cn4)c3)c3ccccc23)cc1` [Example 266, 5-((4-(((4-(3-(3-(tert-butyl)-1-(p-tolyl)-1H-pyrazol-5-yl)ureido)naphthalen-1-yl)oxy)methyl)pyridin-2-yl)amino)-N-(2-(1-methyl-piperidin-4-yl)ethyl) pyrazine-2-carboxamide], in that order: under 0.39 nM and 51 nM.
For `COCCNC(=O)Cc1cncc(Nc2cc(COc3ccc(NC(=O)Nc4cc(C(C)(C)C)nn4-c4ccc(C)cc4)c4ccccc34)ccn2)n1` [Example 209, 2-(6-((4-(((4-(3-(3-(tert-butyl)-1-(p-tolyl)-1H-pyrazol-5-yl)ureido)naphthalen-1-yl)oxy)methyl)pyridin-2-yl)amino)pyrazin-2-yl)-N-(2-methoxyethyl)acetamide], in that order: 6.5 nM and 54 nM.
As to `COCc1cccc(-n2nc(C(C)(C)C)cc2NC(=O)Nc2ccc(OCc3ccnc(Nc4cnccn4)c3)c3ccccc23)c1` [Example 166, 1-(3-(tert-butyl)-1-(3-(methoxymethyl)phenyl)-1H-pyrazol-5-yl)-3-(4-((2-(pyrazin-2-ylamino)pyridin-4-yl)methoxy)naphthalen-1-yl)urea], the IC50 in assay [1] came out at 6.2 nM; in assay [2] it was 52 nM.
Take `CCc1cncc(Nc2cc(COc3ccc(NC(=O)Nc4cc(C(C)(C)C)nn4-c4ccc(OC)c(F)c4)c4ccccc34)ccn2)n1` [Example 168, 1-(3-(tert-butyl)-1-(3-fluoro-4-methoxyphenyl)-1H-pyrazol-5-yl)-3-(4-((2-((6-ethylpyrazin-2-yl)amino)pyridin-4-yl)methoxy)naphthalen-1-yl)urea]: the IC50 in assay [1] came to 34 nM; in assay [2] it was 1200 nM.
Taken in the same sequence, the figures for `Cc1ccc(-n2nc(C(C)(C)C)cc2NC(=O)Nc2ccc(OCc3ccnc(Nc4cnc(C)c(C)n4)c3)c3ccccc23)cc1C` [Example 146, 1-(3-(tert-butyl)-1-(3,4-dimethylphenyl)-1H-pyrazol-5-yl)-3-(4-((2-((5,6-dimethylpyrazin-2-yl)amino)pyridin-4-yl)methoxy)naphthalen-1-yl)urea] were 69 nM and 1550 nM.
Take `COc1cccc(-n2nc(C(C)(C)C)cc2NC(=O)Nc2ccc(OCc3ccnc(Nc4cnc(CO)cn4)c3)c3ccccc23)c1` [Example 178, 1-(3-(tert-butyl)-1-(3-methoxyphenyl)-1H-pyrazol-5-yl)-3-(4-((2-((5-(hydroxy-methyl)pyrazin-2-yl)amino)pyridin-4-yl)methoxy)naphthalen-1-yl)urea]: the results for the IC50 in assay [1] and in assay [2] were 5.8 nM and 36 nM, respectively.
Regarding `Cc1ccc(-n2nc(C(C)(C)C)cc2NC(=O)Nc2ccc(OCc3ccnc(Nc4cnc(C(=O)N5CC[C@H](N(C)C)C5)cn4)c3)c3ccccc23)cc1` [Example 258, (S)-1-(3-(tert-butyl)-1-(p-tolyl)-1H-pyrazol-5-yl)-3-(4-((2-((5-(3-(dimethyl-amino)pyrrolidine-1-carbonyl)pyrazin-2-yl)amino)pyridin-4-yl)methoxy)naphthalen-1-yl)urea], the IC50 in assay [1] was 2.4 nM; in assay [2] it was 77 nM.
Turning to `CO[C@H]1CCN(C(=O)c2cnc(Nc3cc(COc4ccc(NC(=O)Nc5cc(C(C)(C)C)nn5-c5ccc(C)cc5)c5ccccc45)ccn3)cn2)C1` [Example 67], the IC50 was 39 nM in assay [1] and 345 nM in assay [2].
For `CCc1ccc(-n2nc(C(C)(C)C)cc2NC(=O)Nc2ccc(OCc3ccnc(Nc4cncc(CC)n4)c3)c3ccccc23)cc1` [Example 173, 1-(3-(tert-butyl)-1-(4-ethylphenyl)-1H-pyrazol-5-yl)-3-(4-((2-((6-ethylpyrazin-2-yl)amino)pyridin-4-yl)methoxy)naphthalen-1-yl) urea], in that order: 54 nM and 571 nM.
On to `COc1ccc(-n2nc(C(C)(C)C)cc2NC(=O)Nc2ccc(OCc3ccnc(Nc4cnc(C(=O)N5CCCC5)cn4)c3)c3ccccc23)cn1` [Example 219, 1-(3-(tert-butyl)-1-(6-methoxypyridin-3-yl)-1H-pyrazol-5-yl)-3-(4-((2-((5-(pyrrolidine-1-carbonyl)pyrazin-2-yl)amino)pyridin-4-yl)methoxy)naphthalen-1-yl)urea], for which the IC50 is 18 nM in assay [1] and over 14000 nM in assay [2].
Taken in the same sequence, the figures for `Cc1cccc(-n2nc(C(C)(C)C)cc2NC(=O)Nc2ccc(OCc3ccnc(Nc4cnc(CO)cn4)c3)c3ccccc23)c1` [Example 61] were 5.6 nM and 32 nM.
Taken in the same sequence, the figures for `COCCNC(=O)c1cnc(Nc2cc(COc3ccc(NC(=O)Nc4cc(C(C)(C)C)nn4-c4cccc(C)c4)c4ccccc34)ccn2)cn1` [Example 152, 5-((4-(((4-(3-(3-(tert-butyl)-1-(m-tolyl)-1H-pyrazol-5-yl)ureido)naphthalen-1-yl)oxy)methyl)pyridin-2-yl)amino)-N-(2-methoxyethyl) pyrazine-2-carboxamide] were 14 nM and 240 nM.
For `CCc1cncc(Nc2cc(COc3ccc(NC(=O)Nc4cc(C(C)(C)C)nn4-c4ccc(C)c(C)c4)c4ccccc34)ccn2)n1` [Example 144, 1-(3-(tert-butyl)-1-(3,4-dimethylphenyl)-1H-pyrazol-5-yl)-3-(4-((2-((6-ethylpyrazin-2-yl)amino)pyridin-4-yl)methoxy)naphthalen-1-yl)urea], the IC50 in assay [1] is 63 nM; in assay [2], 518 nM.
Taken in the same sequence, the figures for `CC(C)(C)c1cc(NC(=O)Nc2ccc(OCc3ccnc(Nc4cnccn4)c3)c3ccccc23)n(-c2ccc(F)cc2)n1` [Example 187, 1-(3-(tert-butyl)-1-(4-fluorophenyl)-1H-pyrazol-5-yl)-3-(4-((2-(pyrazin-2-ylamino)pyridin-4-yl)methoxy)naphthalen-1-yl) urea] were 16 nM and 180 nM.
Taken in the same sequence, the figures for `CC(C)(C)c1cc(NC(=O)Nc2ccc(OCc3ccnc(Nc4cnccn4)c3)c3ccccc23)n(-c2ccccc2)n1` [Example 75] were 17 nM and 179 nM.
Taken in the same sequence, the figures for `COc1cc(-n2nc(C(C)(C)C)cc2NC(=O)Nc2ccc(OCc3ccnc(Nc4cnccn4)c3)c3ccccc23)ccc1C` [Example 57] were 15 nM and 229 nM.
Regarding `COC1CCN(C(=O)c2cnc(Nc3cc(COc4ccc(NC(=O)Nc5cc(C(C)(C)C)nn5-c5cccc(C)c5)c5ccccc45)ccn3)cn2)CC1` [Example 206, 1-(3-(tert-butyl)-1-(m-tolyl)-1H-pyrazol-5-yl)-3-(4-((2-((5-(4-methoxypiperidine-1-carbonyl)pyrazin-2-yl)amino)pyridin-4-yl)methoxy)naphthalen-1-yl)urea], the IC50 in assay [1] is 22 nM; in assay [2], 517 nM.
Regarding `Cc1ccc(-n2nc(C(C)(C)C)cc2NC(=O)Nc2ccc(OCc3ccnc(Nc4cncc(N5CCCC5)n4)c3)c3ccccc23)cc1` [Example 55, 1-(3-(tert-Butyl)-1-(p-tolyl)-1H-pyrazol-5-yl)-3-(4-((2-((6-(pyrrolidin-1-yl)pyrazin-2-yl)amino)pyridin-4-yl)methoxy)naphthalen-1-yl)urea], the IC50 is 15 nM in assay [1] and 151 nM in assay [2].
Taken in the same sequence, the figures for `CCc1cncc(Nc2cc(COc3ccc(NC(=O)Nc4cc(C(C)(C)C)nn4-c4ccc(OC)nc4)c4ccccc34)ccn2)n1` [Example 63] were 25 nM and 312 nM.
With `Cc1ccc(-n2nc(C(C)(C)C)cc2NC(=O)Nc2ccc(OCc3ccnc(Nc4cnc(C(=O)N5C[C@H](O)[C@@H](O)C5)cn4)c3)c3ccccc23)cc1` [Example 247, 1-(3-(tert-butyl)-1-(p-tolyl)-1H-pyrazol-5-yl)-3-(4-((2-((5-((3S,4S)-3,4-dihydroxy-pyrrolidine-1-carbonyl)pyrazin-2-yl)amino)pyridin-4-yl)methoxy)naphthalen-1-yl)urea], the IC50 was determined as 7 nM in assay [1] and 61 nM in assay [2].
For `COc1cc(F)cc(-n2nc(C(C)(C)C)cc2NC(=O)Nc2ccc(OCc3ccnc(Nc4cnccn4)c3)c3ccccc23)c1` [Example 220, 1-(3-(tert-butyl)-1-(3-fluoro-5-methoxyphenyl)-1H-pyrazol-5-yl)-3-(4-((2-(pyrazin-2-ylamino)pyridin-4-yl)methoxy)naphthalen-1-yl)urea], in that order: 31 nM and 164 nM.
For `CO[C@@H]1CCN(C(=O)c2cnc(Nc3cc(COc4ccc(NC(=O)Nc5cc(C(C)(C)C)nn5-c5ccc(C)cc5)c5ccccc45)ccn3)cn2)C1` [Example 66], in that order: 28 nM and 319 nM.
